Measured values published in patent US20230233576A1, “ECLITASERTIB FOR USE IN TREATING CONDITIONS INVOLVING SYSTEMIC HYPERINFLAMMATORY RESPONSE” (priority 2020, published 2023).

Tested on: adult participants hospitalized for severe COVID-19
Experiment: Phase 1b severe COVID-19 study: oxygenation (SpO2, SpO2/FiO2 ratio, days without oxygen support, VFD, RFFD)
Format: in vivo, human
Conditions: for Change from baseline in SpO2/FiO2 ratio, point estimate / Change from baseline in SpO2/FiO2 ratio, adjusted treatment difference RIPK1 Inhibitor vs placebo: MMRM, LOCF; for median change from baseline in SpO2/FiO2 ratio: observed data; for median change in SpO2/FiO2 ratio from baseline: LOCF imputation
Protocol: This study was a multinational, multi-center, double-blind, 2:1 randomized (RIPK1 Inhibitor to placebo), placebo-controlled study in adult participants hospitalized for severe COVID-19.
Participants were assigned to treatment according to randomization list. Six RIPK1 Inhibitor 50 mg capsules (300 mg) or matching placebo capsules were administered orally in fasting or fed conditions twice a day (BID). For participants intubated with feeding tube in place, the IMPs were given as suspension by feeding tube.
The main secondary clinical assessments endpoints included: • Time to 50% decrease from baseline in CRP level • Time to improvement of oxygenation as measured by oxygen saturation≥92% breathing room air over 48 hours or until discharge • Change from baseline in SPO2/FiO2 ratio at Day 7
Other secondary clinical assessment endpoints included: • Number of Days without need for oxygen support and alive (oxygen saturation≥92% breathing room air) up to Day 28 • Numbers of Ventilator-free days and alive up to Day 28 • Change from baseline in markers of inflammation (White blood cell count, differential blood lymphocytes, neutrophil to lymphocyte ratio, IL-6) and D-Dimer at Day 7 and EOT • Incidence of Deaths up to Day 28 • Percentage of participants receiving thrombolytic treatment up to Day 28 • Percentage of participants receiving vasopressor treatment up to Day 28 • Numbers of Respiratory Failure-Free Days (RFFD) and alive up to Day 28
The time to improvement of oxygenation as measured by oxygen saturation>92% breathing room air over 48 hours or until discharge was estimated using the Kaplan-Meier approach and treatment arms were compared in an exploratory fashion using the log-rank test.
Presence of SO2≥92% without use of any supplemental oxygen device on two consecutive days (earliest occurrence) or at day of discharge was considered as event. If such criterion was not met, time to event was censored at the time point of the last observation of SpO2 collected. For participants who died during the study without experiencing the event, similar LOCF approached was used and a sensitivity analysis was performed as described in Section 1.7.1.1.2.1.
The number and percentage of participants who experience the event without applying censoring rules was reported at Days 3, 5, 7, 15 and 28.
The analysis of the change from baseline in SpO2/FiO2 ratio was based on a MMRM model fitted on observed values for Days 2, 3, 4, 5, 6, 7 and 15. The model included fixed effects for participant-specific SpO2/FiO2 ratio at baseline, respective visit, treatment group, and visit-by-treatment group interaction, and random effects for sites. Repeated measurements for each visit were taken within participant assuming an unstructured covariance pattern within treatment group.
The LS means for the difference in change from baseline at Day 7 between RIPK1 Inhibitor and placebo were provided, jointly with the corresponding 90% confidence interval.
The point estimate of the change from baseline in SpO2/FiO2 ratio and the difference between treatment groups and two-sided 90% confidence interval value were reported for Day 2 to 7 and EOT as described above. Time profile plots of point estimates of the change from baseline (+/−90% Cis) were presented by treatment group.
Missing values for the change from baseline in SpO2/FiO2 ratio were replaced following the LOCF approach, regardless if occurring before or after discontinuation/discharge/death. In case no LOCF could be identified (e.g., no post-baseline value prior to Day 2 to replace a missing Day 2 result), the missing value was not imputed. A sensitivity analysis was performed by repeating the above analysis without any imputation of missing values.

[1] = 600 mg, Baseline, Efficacy population
[2] = 600 mg, Day 2, Efficacy population
[3] = 600 mg, Day 3, Efficacy population
[4] = 600 mg, Day 4, Efficacy population
[5] = 600 mg, Day 5, Efficacy population
[6] = 600 mg, Day 6, Efficacy population
[7] = 600 mg, Day 7, Efficacy population
[8] = 600 mg, Day 8, Efficacy population
[9] = 600 mg, Day 9, Efficacy population
[10] = 600 mg, Day 10, Efficacy population
[11] = 600 mg, Day 11, Efficacy population
[12] = 600 mg, Day 12, Efficacy population
[13] = 600 mg, Day 13, Efficacy population
[14] = 600 mg, Day 14, Efficacy population
[15] = 600 mg, Day 15, Efficacy population
[16] = 600 mg, up to Day 28, Efficacy population

SMILES: CN1C(=O)[C@@H](NC(=O)c2nnc(Cc3ccccc3)[nH]2)COc2cccnc21 [RIPK1 Inhibitor, (S)-5-benzyl-N-(5-methyl-4-oxo-2,3,4,5-tetrahydropyrido[3,2-b][1,4]oxazepin-3-yl)-4H-1,2,4-triazole-3-carboxamide]
- difference of VFDs or RFFDs between the 2 treatment arms in favor of RIPK1 Inhibitor (600 mg vs placebo, based on mean values, 28-day study period): 3
- difference in mean days (without oxygen support, VFDs, RFFDs) in favor of RIPK1 Inhibitor group (600 mg vs placebo, up to 15-day treatment period): 1 days
- SpO2/FiO2 ratio, raw data, Mean [1]: 298.0
- SpO2/FiO2 ratio, raw data, Median [1]: 306.3
- SpO2/FiO2 ratio, change from baseline, Mean [2]: 16.8
- SpO2/FiO2 ratio, change from baseline, Median [2]: 3.3
- SpO2/FiO2 ratio, raw data, Mean [2]: 314.8
- SpO2/FiO2 ratio, raw data, Median [2]: 290.9
- Change from baseline in SpO2/FiO2 ratio, point estimate (600 mg, Day 02, Efficacy population): 72.02
- median change from baseline in SpO2/FiO2 ratio (600 mg, Day 2): 3.3
- SpO2/FiO2 ratio, change from baseline, Mean [3]: 43.9
- SpO2/FiO2 ratio, change from baseline, Median [3]: 30.9
- SpO2/FiO2 ratio, raw data, Mean [3]: 337.9
- SpO2/FiO2 ratio, raw data, Median [3]: 330.6
- median change in SpO2/FiO2 ratio from baseline (600 mg, Day 3): 29.0
- Change from baseline in SpO2/FiO2 ratio, point estimate (600 mg, Day 03, Efficacy population): 97.90
- SpO2/FiO2 ratio, change from baseline, Mean [4]: 50.8
- SpO2/FiO2 ratio, change from baseline, Median [4]: 47.3
- SpO2/FiO2 ratio, raw data, Mean [4]: 340.4
- SpO2/FiO2 ratio, raw data, Median [4]: 355.5
- median change in SpO2/FiO2 ratio from baseline (600 mg, Day 4): 38.1
- Change from baseline in SpO2/FiO2 ratio, point estimate (600 mg, Day 04, Efficacy population): 104.61
- median change from baseline in SpO2/FiO2 ratio (600 mg, Day 4): 47.3
- SpO2/FiO2 ratio, change from baseline, Mean [5]: 62.7
- SpO2/FiO2 ratio, change from baseline, Median [5]: 69.6
- SpO2/FiO2 ratio, raw data, Mean [5]: 350.5
- SpO2/FiO2 ratio, raw data, Median [5]: 356.1
- median change in SpO2/FiO2 ratio from baseline (600 mg, Day 5): 70.8
- Change from baseline in SpO2/FiO2 ratio, point estimate (600 mg, Day 05, Efficacy population): 121.79
- SpO2/FiO2 ratio, change from baseline, Mean [6]: 72.5
- SpO2/FiO2 ratio, change from baseline, Median [6]: 73.9
- SpO2/FiO2 ratio, raw data, Mean [6]: 358.7
- SpO2/FiO2 ratio, raw data, Median [6]: 384.0
- median change in SpO2/FiO2 ratio from baseline (600 mg, Day 6): 113.8
- Change from baseline in SpO2/FiO2 ratio, point estimate (600 mg, Day 06, Efficacy population): 134.66
- Change from baseline in SpO2/FiO2 ratio, adjusted treatment difference RIPK1 Inhibitor vs placebo [6]: 28.71
- median change from baseline in SpO2/FiO2 ratio (600 mg, Day 6): 73.9
- SpO2/FiO2 ratio, change from baseline, Mean [7]: 89.2
- SpO2/FiO2 ratio, change from baseline, Median [7]: 124.1
- SpO2/FiO2 ratio, raw data, Mean [7]: 367.1
- SpO2/FiO2 ratio, raw data, Median [7]: 418.2
- median change in SpO2/FiO2 ratio from baseline (600 mg, Day 7): 115.3
- Change from baseline in SpO2/FiO2 ratio, point estimate (600 mg, Day 07, Efficacy population): 142.21
- Change from baseline in SpO2/FiO2 ratio, adjusted treatment difference RIPK1 Inhibitor vs placebo [7]: 25.24
- median change from baseline in SpO2/FiO2 ratio (600 mg, Day 7): 124.1
- SpO2/FiO2 ratio, change from baseline, Mean [8]: 99.2
- SpO2/FiO2 ratio, change from baseline, Median [8]: 131.4
- SpO2/FiO2 ratio, raw data, Mean [8]: 371.5
- SpO2/FiO2 ratio, raw data, Median [8]: 433.3
- median change in SpO2/FiO2 ratio from baseline (600 mg, Day 8): 125.6
- SpO2/FiO2 ratio, change from baseline, Mean [9]: 111.2
- SpO2/FiO2 ratio, change from baseline, Median [9]: 150.0
- SpO2/FiO2 ratio, raw data, Mean [9]: 381.8
- SpO2/FiO2 ratio, raw data, Median [9]: 445.2
- SpO2/FiO2 ratio, change from baseline, Mean [10]: 119.8
- SpO2/FiO2 ratio, change from baseline, Median [10]: 133.8
- SpO2/FiO2 ratio, raw data, Mean [10]: 386.7
- SpO2/FiO2 ratio, raw data, Median [10]: 447.6
- SpO2/FiO2 ratio, change from baseline, Mean [11]: 111.0
- SpO2/FiO2 ratio, change from baseline, Median [11]: 153.7
- SpO2/FiO2 ratio, raw data, Mean [11]: 373.2
- SpO2/FiO2 ratio, raw data, Median [11]: 445.2
- SpO2/FiO2 ratio, change from baseline, Mean [12]: 138.8
- SpO2/FiO2 ratio, change from baseline, Median [12]: 190.3
- SpO2/FiO2 ratio, raw data, Mean [12]: 401.0
- SpO2/FiO2 ratio, raw data, Median [12]: 452.4
- SpO2/FiO2 ratio, change from baseline, Mean [13]: 129.1
- SpO2/FiO2 ratio, change from baseline, Median [13]: 195.1
- SpO2/FiO2 ratio, raw data, Mean [13]: 389.5
- SpO2/FiO2 ratio, raw data, Median [13]: 457.1
- SpO2/FiO2 ratio, change from baseline, Mean [14]: 139.4
- SpO2/FiO2 ratio, change from baseline, Median [14]: 192.7
- SpO2/FiO2 ratio, raw data, Mean [14]: 414.8
- SpO2/FiO2 ratio, raw data, Median [14]: 454.8
- SpO2/FiO2 ratio, change from baseline, Mean [15]: 160.6
- SpO2/FiO2 ratio, change from baseline, Median [15]: 195.1
- SpO2/FiO2 ratio, raw data, Mean [15]: 436.0
- SpO2/FiO2 ratio, raw data, Median [15]: 457.1
- median change in SpO2/FiO2 ratio from baseline (600 mg, Day 15): 135.1
- Change from baseline in SpO2/FiO2 ratio, point estimate [15]: 174.65
- median change from baseline in SpO2/FiO2 ratio (600 mg, Day 15): 195.1
- median time to improvement of oxygenation (SpO2 >=92% breathing room air) (600 mg, Kaplan-Meier, Efficacy population): 6 days
- Number of Days without need for Oxygen Support and Alive, Mean [16]: 20.5 days
- Number of Days without need for Oxygen Support and Alive, Median [16]: 23.0 days
- Number of Respiratory Failure-Free Days and Alive, Mean [16]: 25.9 days
- Number of Respiratory Failure-Free Days and Alive, Median [16]: 28.0 days
- Number of Ventilator-Free Days and Alive, Mean [16]: 26.0 days
- Number of Ventilator-Free Days and Alive, Median [16]: 28.0 days
